How the values were obtained:
[1] = system: anti-digoxin monoclonal antibody clone DI-22-FITC conjugate; assay: Detection of low molecule-protein bonding on low molecule-fixed slide (fluorescent slide scanner, 488 nm); type: binding; conditions: light of 488 nm; 162 μg/mL anti-digoxin monoclonal antibody clone DI-22-FITC conjugate; room temperature 1 hour; compound fixed on photophilic atomic group-introduced slide
Procedure: (§1) On the photophilic atomic group-introduced slide, 0.2 μL of each of solutions of low-molecular compounds (biotin, rhodamine B, digoxin) in DMSO, which had been prepared in concentrations of 100, 10, 1, 0.1 and 0.01 mM, was spotted. The slide was dried in an incubator at 35° C. for 3 hours and further dried with a vacuum pump for 20 hours. […] The slide was then washed while shaking by immersing in ethanol, DMF, THF, ethanol and deionized water in this order (for 1 hour each). Thus, a slide on which low molecules were fixed was produced.
(§2) Onto the low molecule-fixed slide, a protein solution (162 μg/mL anti-digoxin monoclonal antibody clone DI-22-FITC conjugate, 3.7 μg/mL streptavidin-Alexa Fluor 633 conjugate, 1% (w/v) skimmed milk, 77 mM NaCl, 0.05% (w/v) TWEEN™ 20 (polysorbate 20), 50 mM Tris-HCl, pH 7.5) was added at a rate of […], and then treated at room temperature for 1 hour. The slide was washed while shaking three times with a wash buffer (77 mM NaCl, 0.05% (w/v) TWEEN™ 20 (polysorbate 20), 50 mM Tris-HCl, pH 7.5), rinsed with deionized water, and dehydrated in a dehydration centrifuge (400×g) for 1 minute, The slide was exited with light of 488, 532 and 635 nm, respectively, and the emitted fluorescent light was observed on a fluorescent slide scanner. […]

[2] = molecular target: streptavidin-Alexa Fluor 633 conjugate (Streptomyces avidinii, UniProt P22629); assay: Detection of low molecule-protein bonding on low molecule-fixed slide (fluorescent slide scanner, 635 nm); type: binding; conditions: light of 635 nm; 3.7 μg/mL streptavidin-Alexa Fluor 633 conjugate; room temperature 1 hour; compound fixed on photophilic atomic group-introduced slide
streptavidin-Alexa Fluor 633 conjugate, sequence (P22629 25-183): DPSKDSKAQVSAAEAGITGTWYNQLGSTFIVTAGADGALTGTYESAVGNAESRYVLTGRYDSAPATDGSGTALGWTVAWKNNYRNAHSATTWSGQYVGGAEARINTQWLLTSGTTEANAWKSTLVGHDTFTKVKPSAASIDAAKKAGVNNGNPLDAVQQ
Procedure: as §1, §2

Compound	binding of fixed low-molecular compound to protein (fluorescence detected at spotted areas) [1]	binding of fixed low-molecular compound to protein (fluorescence detected at spotted areas) [2]
C[C@H]1O[C@@H](O[C@H]2C(O)C[C@H](OC3CC[C@@]4(C)[C@H](CC[C@@H]5[C@@H]4C[C@@H](O)[C@]4(C)[C@@H](C6=CC(=O)OC6)CC[C@]54O)C3)O[C@@H]2C)C[C@H](O)C1O[C@H]1C[C@H](O)[C@H](O)[C@@H](C)O1 (some centres unmarked) [digoxin]	bound to the protein	–
O=C(O)CCCC[C@@H]1SC[C@@H]2NC(=O)N[C@@H]21 [biotin]	–	bound to the protein

Reference: patent US7713706B2, “Method of fixing low-molecular compound to solid-phase support” (RIKEN, priority 2003, dated 2010)
